The values that follow come from ChEMBL document CHEMBL1150573, “Three new triterpenes from the seeds of Combretum quadrangulare and their hepatoprotective activity” (J Nat Prod, 2001).

pIC50: −log10 of the molar value. Calls of active or inactive are those of the source. The calls are words filed in the database; no cut-off is given here.

In assay [1] the test system is Hepatocyte. Briefly: Hepatoprotective activity against D-galactosamine/TNFalpha-induced cell death in primary cultured mouse hepatocytes at 25 uM treated for 30 mins before TNFalpha challenge measured after 18 hrs by MTT assay relative to control. It is filed as functional. (In general: Tetrazolium assays rely on reduction of a dye to a coloured formazan, in cell work by metabolically active cells.)

Assay [2] concerns Hepatocyte. Briefly: Hepatoprotective activity against D-galactosamine/TNFalpha-induced cell death in primary cultured mouse hepatocytes treated for 30 mins before TNFalpha challenge measured after 18 hrs by MTT assay. Format: functional, cell-based.
Assay [3] deals with Hepatocyte. Put plainly: Hepatoprotective activity against D-galactosamine/TNFalpha-induced cell death in primary cultured mouse hepatocytes at 50 uM treated for 30 mins before TNFalpha challenge measured after 18 hrs by MTT assay relative to control. Format: functional.
Assay [4] relates to Hepatocyte. Put plainly: Hepatoprotective activity against D-galactosamine/TNFalpha-induced cell death in primary cultured mouse hepatocytes at 100 uM treated for 30 mins before TNFalpha challenge measured after 18 hrs by MTT assay relative to control. It is filed as functional.
Assay [5] deals with Hepatocyte. Put plainly: Hepatoprotective activity against D-galactosamine/TNFalpha-induced cell death in primary cultured mouse hepatocytes assessed as cell viability at 50 uM treated for 30 mins before TNFalpha challenge measured after 18 hrs by MTT assay relative to normal hepatocytes. Format: functional. To be noted: read-out: Activity.
Assay [6] deals with Hepatocyte. Briefly: Hepatoprotective activity against D-galactosamine/TNFalpha-induced cell death in primary cultured mouse hepatocytes assessed as cell viability at 100 uM treated for 30 mins before TNFalpha challenge measured after 18 hrs by MTT assay relative to normal hepatocytes. The note with it: read-out: Activity. Format: functional.
Assay [7] deals with Hepatocyte. Briefly: Hepatoprotective activity against D-galactosamine/TNFalpha-induced cell death in primary cultured mouse hepatocytes assessed as cell viability at 25 uM treated for 30 mins before TNFalpha challenge measured after 18 hrs by MTT assay relative to normal hepatocytes. Format: functional. The note with it: read-out: Activity.

As usually defined, the inhibition is the drop in the measured response relative to a control, in per cent. A word on the pIC50: it is −log10 of the IC50, conventionally taken in molar units. Take `COc1cc(C2Oc3cc([C@H]4Oc5cc(O)cc(O)c5C(=O)[C@@H]4O)ccc3OC2CO)ccc1O` (stereo not given in full) [SILIBININ]: the inhibition at 25 µM in assay [1] was 44.9%. Further, the pIC50 in assay [2] is 4.52. Besides, the inhibition at 50 µM in assay [3] came out at 68.2%. Also, the inhibition at 100 µM in assay [4] came to 129%. For the same compound, the viability at 50 µM in assay [5] was determined as 35.1%. Moreover, the viability at 100 µM in assay [6] came out at 47.9%. Moreover, the viability at 25 µM in assay [7] amounted to 30.2%.

On to `CC1=C2C3=CC[C@@H]4[C@@]5(C)C[C@@H](O)[C@H](O)[C@@](C)(CO)[C@@H]5[C@H](O)C[C@@]4(C)[C@]3(C)CC[C@@]2(C(=O)O[C@@H]2O[C@H](CO)[C@@H](O)[C@H](O)[C@H]2O)CC[C@H]1C`, for which the outcome in assay [2] was Active.

Consider `C=C(C)[C@@H]1CC[C@]2(C(=O)O)CC[C@]3(C)[C@H](CC[C@@H]4[C@@]5(C)C[C@@H](O)[C@H](O)C(C)(C)[C@@H]5[C@H](O)C[C@]43C)[C@@H]12`, for which the inhibition at 25 µM in assay [1] amounted to 5.9%. Also, in assay [2], the pIC50 is 4.22. The inhibition at 50 µM in assay [3] came to 35.8%. In addition, the inhibition at 100 µM in assay [4] worked out at 128%. The viability at 50 µM in assay [5] was 28.4%. Also, the viability at 100 µM in assay [6] was found to be 47.6%. Besides, in assay [7], the viability at 25 µM came to 22.2%.

For the compound `CC1(C)[C@@H](O[C@H]2O[C@H](C(=O)O)[C@@H](O)[C@H](O)[C@H]2O[C@@H]2O[C@H](C(=O)O)[C@@H](O)[C@H](O)[C@H]2O)CC[C@]2(C)[C@H]3C(=O)C=C4[C@@H]5C[C@@](C)(C(=O)O)CC[C@]5(C)CC[C@@]4(C)[C@]3(C)CC[C@@H]12` [GLYCYRRHIZIN], the pIC50 in assay [2] is under 3.70.

Take `CC1(C)CC[C@]2(C(=O)O)CC[C@]3(C)C(=CC[C@@H]4[C@@]5(C)C[C@@H](O)[C@H](O)C(C)(C)[C@@H]5CC[C@]43C)[C@@H]2[C@@H]1O` [ARJUNIC ACID]: the inhibition at 25 µM in assay [1] came out at 26.7%. Moreover, the inhibition at 50 µM in assay [3] is 27%. Further, in assay [4], the inhibition at 100 µM was found to be 32.9%. The viability at 50 µM in assay [5] is 26.6%. For the same compound, the viability at 100 µM in assay [6] was determined as 27.8%. Also, the viability at 25 µM in assay [7] was found to be 26.5%.

Take `C=C(C)[C@@H]1CC[C@]2(C(=O)O[C@@H]3O[C@H](CO)[C@@H](O)[C@H](O)[C@H]3O)CC[C@]3(C)[C@H](CC[C@@H]4[C@@]5(C)C[C@@H](O)[C@H](O)[C@@](C)(CO)[C@@H]5[C@H](O)C[C@]43C)[C@@H]12`: in assay [2], the outcome was Active.

On to `C[C@@H]1CC[C@]2(C(=O)O[C@@H]3O[C@H](CO)[C@@H](O)[C@H](O)[C@H]3O)CC[C@]3(C)C(=CC[C@@H]4[C@@]5(C)C[C@@H](O)[C@H](O)[C@@](C)(CO)[C@@H]5CC[C@]43C)[C@@H]2[C@]1(C)O`, for which, in assay [2], the outcome was inactive.

Turning to `C[C@H]1[C@H](C)CC[C@]2(C(=O)O[C@@H]3O[C@H](CO)[C@@H](O)[C@H](O)[C@H]3O)CC[C@]3(C)C(=CC[C@@H]4[C@@]5(C)C[C@@H](O)[C@H](O)[C@@](C)(CO)[C@@H]5CC[C@]43C)[C@H]12`, the outcome in assay [2] was inactive.

With `CC1(C)CC[C@]2(C(=O)O)CC[C@]3(C)C(=CC[C@@H]4[C@@]5(C)C[C@@H](O)[C@H](O)[C@@](C)(CO)[C@@H]5CC[C@]43C)[C@@H]2C1` [ARJUNOLIC ACID], in assay [1], the inhibition at 25 µM worked out at 19.1%. The same compound gave a negative logarithm of the IC50 (pIC50) in assay [2] of 4.23. Further, the inhibition at 50 µM in assay [3] was found to be 33.8%. In assay [4], the inhibition at 100 µM turned out to be 108%. For the same compound, the viability at 50 µM in assay [5] is 28%. For the same compound, the viability at 100 µM in assay [6] was 43.6%. In addition, the viability at 25 µM in assay [7] is 24.9%.

For the compound `C=C(C)[C@@H]1CC[C@]2(C(=O)O)CC[C@]3(C)[C@H](CC[C@@H]4[C@@]5(C)C[C@@H](O)[C@H](O)[C@@](C)(CO)[C@@H]5[C@H](O)C[C@]43C)[C@@H]12`, the inhibition at 25 µM in assay [1] was determined as 36.4%. This compound showed a pIC50 in assay [2] of 4.29. Moreover, in assay [3], the inhibition at 50 µM amounted to 46.2%. Further, the inhibition at 100 µM in assay [4] was determined as 71.7%. In addition, the viability at 50 µM in assay [5] is 30.6%. Further, the viability at 100 µM in assay [6] worked out at 36%. The viability at 25 µM in assay [7] was found to be 28.6%.

With `CC1(C)CC[C@]2(C(=O)O)CC[C@]3(C)C(=CC[C@@H]4[C@@]5(C)C[C@@H](O)[C@H](O)C(C)(C)[C@@H]5[C@H](O)C[C@]43C)[C@@H]2[C@@H]1O`, the inhibition at 25 µM in assay [1] was 15.4%. In assay [3], the inhibition at 50 µM is 18%. The inhibition at 100 µM in assay [4] was found to be 24.4%. For the same compound, in assay [5], the viability at 50 µM was found to be 24.7%. The viability at 100 µM in assay [6] is 26.1%. For the same compound, the viability at 25 µM in assay [7] is 24.2%.

On to `CC1=C2C3=CC[C@@H]4[C@@]5(C)C[C@@H](O)[C@H](O)[C@@](C)(CO)[C@@H]5CC[C@@]4(C)[C@]3(C)CC[C@@]2(C(=O)O)CC[C@H]1C`, for which the inhibition at 25 µM in assay [1] is 40.6%. This compound also showed a pIC50 in assay [2] of 4.29. Moreover, the inhibition at 50 µM in assay [3] worked out at 47.4%. Moreover, the inhibition at 100 µM in assay [4] came out at 150%. For the same compound, the viability at 50 µM in assay [5] is 30.8%. Besides, in assay [6], the viability at 100 µM was found to be 51.5%. The viability at 25 µM in assay [7] came out at 29.4%.

Take `CC[C@H](CC[C@@H](C)[C@H]1CC[C@H]2[C@@H]3CC=C4C[C@@H](O)CC[C@]4(C)[C@H]3CC[C@]12C)C(C)C` [BETA-SITOSTEROL]: in assay [1], the inhibition at 25 µM is 17.7%. Further, the inhibition at 50 µM in assay [3] is 28.1%. The inhibition at 100 µM in assay [4] was 32.5%. The viability at 50 µM in assay [5] turned out to be 26.4%. Moreover, in assay [6], the viability at 100 µM amounted to 27.3%. The viability at 25 µM in assay [7] stood at 24.3%.

For `C[C@@H]1CC[C@]2(C(=O)O)CC[C@]3(C)C(=CC[C@@H]4[C@@]5(C)C[C@@H](O)[C@H](O)[C@@](C)(CO)[C@@H]5CC[C@]43C)[C@@H]2[C@]1(C)O`, the result in assay [2] was inactive.

With `C=C(C)[C@@H]1CC[C@]2(C(=O)O[C@@H]3O[C@H](CO)[C@@H](O)[C@H](O)[C@H]3O)CC[C@]3(C)[C@H](CC[C@@H]4[C@@]5(C)C[C@@H](O)[C@H](O)C(C)(C)[C@@H]5[C@H](O)C[C@]43C)[C@@H]12`, in assay [2], the outcome was Active.
